Results reported in patent publication US20260062422A1 (Halda Therapeutics OpCo, Inc., priority 2022, published 2026).

Columns and labels:
VCaP cells = test: Cellular growth inhibition assay for VCaP cells, CellTiter-Glo; assay type: cell-based, human; settings: 72 hours treatment, CellTiter-Glo 2.0
Method in brief: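 GI50 values come from four-parameter curve fits of luminescence data normalized to a zero baseline. Compound, in medium with 0.5% DMSO, was added one day after plating and left for 72 h before CellTiter-Glo 2.0 addition.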

T47D cells = test: Cellular growth inhibition assay for T47D cells, CellTiter-Glo; assay type: cell-based, human; settings: 72 hours treatment, CellTiter-Glo 2.0 cell viability
Method in brief: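 Cells are plated at 3000/well and allowed 24 h before treatment. Test compound in medium containing 0.5% DMSO is then added, with DMSO-only wells as negative control, and plates are incubated 72 h at 37 °C. ATP luminescence (CellTiter-Glo 2.0) is then fitted to four parameters to derive GI50.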

[1] = test system: T-Rex 293 cell line SC3 cells lacking increased expression of androgen receptor protein; test: Cellular growth inhibition, T-Rex 293 SC3 cells without doxycycline, CellTiter-Glo; assay type: cell-based; settings: T-Rex 293 SC3 cells not exposed to doxycycline, CellTiter-Glo 2.0
Method in brief: (§1)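 GI50 came from a four-parameter fit of CellTiter-Glo 2.0 luminescence after 72 h compound exposure (0.5% DMSO, 37 °C), dosing 24 h post-seeding. SC3 clone cells (2500/well), transfected with wild-type androgen receptor, grew in charcoal-stripped serum medium lacking phenol red, induced with 10 ng/mL doxycycline or left uninduced.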

[2] = test system: T-Rex 293 cell line SC3 cells having increased expression of androgen receptor protein due to exposure to doxycycline; test: Cellular growth inhibition, T-Rex 293 SC3 cells with doxycycline (androgen receptor induced), CellTiter-Glo; assay type: cell-based; settings: T-Rex 293 SC3 cells with 10 ng/mL doxycycline (increased androgen receptor expression)
Method in brief: as §1

Cc1sc2c(c1C)C(c1ccc(Cl)cc1)=N[C@@H](CC(=O)NCCN1CCN(CC3CCN(c4ncc(C(=O)N[C@H]5C(C)(C)[C@H](Oc6ccc(C#N)c(Cl)c6)C5(C)C)cn4)CC3)CC1)c1nnc(C)n1-2 [Compound I-35, N-((1r,3r)-3-(3-chloro-4-cyanophenoxy)-2,2,4,4-tetramethylcyclobutyl)-2-(4-((4-(2-(2-((S)-4-(4-chlorophenyl)-2,3,9-trimethyl-6H-thieno[3,2-f][1,2,4]triazolo[4,3-a][1,4]diazepin-6-yl)acetamido)ethyl)piperazin-1-yl)methyl)piperidin-1-yl)pyrimidine-5-carboxamide]
GI50 (VCaP cells; Homo sapiens, VCaP, 72 h): 0.5 to 1.5 µM
GI50 (T47D cells; Homo sapiens, T47D, 72 h): < 0.5 µM
GI50 ([1]; 72 h): 0.5 to 1.5 µM
GI50 ([2]; 72 h): 0.5 to 1.5 µM

COCC[C@@H]1N=C(c2ccc(OC3CC4(C3)CC3(CCN(c5ncc(C(=O)N[C@H]6C(C)(C)[C@H](Oc7ccc(C#N)c(Cl)c7)C6(C)C)cn5)CC3)C4)cc2)c2c(sc(C)c2C)-n2c(C)nnc21 [Compound I-584]
GI50 (VCaP cells; Homo sapiens, VCaP, 72 h): < 0.5 µM
GI50 (T47D cells; Homo sapiens, T47D, 72 h): < 0.5 µM
GI50 ([1]; 72 h): > 3 µM
GI50 ([2]; 72 h): < 0.5 µM

Cc1sc2c(c1C)C(c1ccc(CCO[C@H]3CCCN(c4ncc(C(=O)N[C@H]5C(C)(C)[C@H](Oc6ccc(C#N)c(Cl)c6)C5(C)C)cn4)C3)cc1)=N[C@@H](C)c1nnc(C)n1-2 [Compound I-354]
GI50 (VCaP cells; Homo sapiens, VCaP, 72 h): < 0.5 µM
GI50 (T47D cells; Homo sapiens, T47D, 72 h): 1.5 to 3 µM
GI50 ([1]; 72 h): > 3 µM
GI50 ([2]; 72 h): < 0.5 µM

Cc1sc2c(c1C)C(c1ccc(CC3CC4(C3)CN(c3ncc(C(=O)N[C@H]5C(C)(C)[C@H](Oc6ccc(C#N)c(Cl)c6)C5(C)C)cn3)C4)cc1)=N[C@H](Cc1ncco1)c1nnc(C)n1-2 [Compound I-152]
GI50 (VCaP cells; Homo sapiens, VCaP, 72 h): > 3 µM
GI50 (T47D cells; Homo sapiens, T47D, 72 h): > 3 µM
GI50 ([1]; 72 h): > 3 µM
GI50 ([2]; 72 h): < 0.5 µM

Cc1sc2c(c1C)C(c1ccc([C@@H]3CCN(C(=O)[C@H]4CCCN(c5ncc(C(=O)N[C@H]6C(C)(C)[C@H](Oc7ccc(C#N)c(Cl)c7)C6(C)C)cn5)C4)C3)cc1)=N[C@@H](Cc1ncco1)c1nnc(C)n1-2 [Compound I-386]
GI50 (VCaP cells; Homo sapiens, VCaP, 72 h): > 3 µM
GI50 (T47D cells; Homo sapiens, T47D, 72 h): 0.5 to 1.5 µM
GI50 ([1]; 72 h): > 3 µM
GI50 ([2]; 72 h): > 3 µM

Cc1sc2c(c1C)C(c1ccc(C[C@@H]3CCCN(c4ncc(C(=O)N[C@H]5C(C)(C)[C@H](Oc6ccc(C#N)c(Cl)c6)C5(C)C)cn4)C3)cc1)=N[C@@H](Cc1ncco1)c1nnc(C)n1-2 [Compound I-296]
GI50 (VCaP cells; Homo sapiens, VCaP, 72 h): < 0.5 µM
GI50 (T47D cells; Homo sapiens, T47D, 72 h): < 0.5 µM
GI50 ([1]; 72 h): 0.5 to 1.5 µM
GI50 ([2]; 72 h): < 0.5 µM

Cc1sc2c(c1C)C(c1ccc(N3CCN(C4CCN(c5ncc(C(=O)N[C@H]6C(C)(C)[C@H](Oc7ccc(C#N)c(Cl)c7)C6(C)C)cn5)CC4)CC3)cc1)=NC(Cc1ncco1)c1nnc(C)n1-2 (stereo partly shown) [Compound I-651]
GI50 (VCaP cells; Homo sapiens, VCaP, 72 h): < 0.5 µM
GI50 (T47D cells; Homo sapiens, T47D, 72 h): < 0.5 µM
GI50 ([1]; 72 h): < 0.5 µM
GI50 ([2]; 72 h): < 0.5 µM

CCNC(=O)C[C@@H]1N=C(c2ccc(OCCC3CCN(c4ncc(C(=O)N[C@H]5C(C)(C)[C@H](Oc6ccc(C#N)c(Cl)c6)C5(C)C)cn4)CC3)cc2)c2c(sc(C)c2C)-n2c(C)nnc21 [Compound I-69]
GI50 (VCaP cells; Homo sapiens, VCaP, 72 h): < 0.5 µM
GI50 (T47D cells; Homo sapiens, T47D, 72 h): 0.5 to 1.5 µM
GI50 ([1]; 72 h): < 0.5 µM
GI50 ([2]; 72 h): < 0.5 µM

Cc1sc2c(c1C)C(c1ccc(CNC(=O)[C@H]3CCCN(c4ncc(C(=O)N[C@H]5C(C)(C)[C@H](Oc6ccc(C#N)c(Cl)c6)C5(C)C)cn4)C3)cc1)=N[C@@H](Cc1ncco1)c1nnc(C)n1-2 [Compound I-264]
GI50 (VCaP cells; Homo sapiens, VCaP, 72 h): < 0.5 µM
GI50 (T47D cells; Homo sapiens, T47D, 72 h): < 0.5 µM
GI50 ([1]; 72 h): < 0.5 µM
GI50 ([2]; 72 h): < 0.5 µM

Cc1sc2c(c1C)C(c1ccc(O[C@H]3C[C@@H](N(C(C)C)C4CCN(c5ncc(C(=O)N[C@H]6C(C)(C)[C@H](Oc7ccc(C#N)c(Cl)c7)C6(C)C)cn5)CC4)C3)cc1)=N[C@@H](Cc1ncco1)c1nnc(C)n1-2 [Compound I-281]
GI50 (VCaP cells; Homo sapiens, VCaP, 72 h): < 0.5 µM
GI50 (T47D cells; Homo sapiens, T47D, 72 h): < 0.5 µM
GI50 ([1]; 72 h): 0.5 to 1.5 µM
GI50 ([2]; 72 h): < 0.5 µM

Cc1sc2c(c1C)C(c1ccc(Oc3ncc(C(=O)N[C@H]4C(C)(C)[C@H](Oc5ccc(C#N)c(Cl)c5)C4(C)C)cn3)cc1)=N[C@@H](Cc1ncco1)c1nnc(C)n1-2 [Compound I-205]
GI50 (VCaP cells; Homo sapiens, VCaP, 72 h): < 0.5 µM
GI50 (T47D cells; Homo sapiens, T47D, 72 h): 0.5 to 1.5 µM
GI50 ([1]; 72 h): 0.5 to 1.5 µM
GI50 ([2]; 72 h): < 0.5 µM

Cc1sc2c(c1C)C(c1ccc(CC3CC4(CCN(c5ccc(C(=O)N[C@H]6C(C)(C)[C@H](Oc7ccc(C#N)c(Cl)c7)C6(C)C)nc5)CC4)C3)cc1)=N[C@@H](C)c1nnc(C)n1-2 [Compound I-447]
GI50 (VCaP cells; Homo sapiens, VCaP, 72 h): 0.5 to 1.5 µM
GI50 (T47D cells; Homo sapiens, T47D, 72 h): < 0.5 µM
GI50 ([1]; 72 h): > 3 µM
GI50 ([2]; 72 h): < 0.5 µM

Cc1sc2c(c1C)C(c1ccc(N3CC(C4CCN(c5ncc(C(=O)N[C@H]6C(C)(C)[C@H](Oc7ccc(C#N)c(Cl)c7)C6(C)C)cn5)C4)C3)cc1)=NC1(CC1)c1nnc(C)n1-2 (stereo partly shown) [Compound I-605]
GI50 (VCaP cells): < 0.5 µM
GI50 (T47D cells): 0.5 to 1.5 µM
GI50 ([1]; 72 hours): < 0.5 µM
GI50 ([2]; 72 hours): < 0.5 µM

Cc1sc2c(c1C)C(c1ccc(O[C@@H]3CO[C@]4(CCCN(c5ncc(C(=O)N[C@H]6C(C)(C)[C@H](Oc7ccc(C#N)c(Cl)c7)C6(C)C)cn5)C4)C3)cc1)=N[C@@H](Cc1ncco1)c1nnc(C)n1-2 [Compound I-187]
GI50 (VCaP cells; Homo sapiens, VCaP, 72 h): < 0.5 µM
GI50 (T47D cells; Homo sapiens, T47D, 72 h): < 0.5 µM
GI50 ([1]; 72 h): < 0.5 µM
GI50 ([2]; 72 h): < 0.5 µM

Cc1sc2c(c1C)C(c1ccc(CN(C)C(=O)CCc3ncc(C(=O)N[C@H]4C(C)(C)[C@H](Oc5ccc(C#N)c(Cl)c5)C4(C)C)cn3)cc1)=N[C@@H](Cc1ncco1)c1nnc(C)n1-2 [Compound I-317]
GI50 (VCaP cells; Homo sapiens, VCaP, 72 h): < 0.5 µM
GI50 (T47D cells; Homo sapiens, T47D, 72 h): 0.5 to 1.5 µM
GI50 ([1]; 72 h): > 3 µM
GI50 ([2]; 72 h): 1.5 to 3 µM

Cc1sc2c(c1C)C(c1ccc(OC3CC4(CCN(c5ncc(C(=O)N[C@H]6C(C)(C)[C@H](Oc7ccc(C#N)c(Cl)c7)C6(C)C)cn5)CC4)C3)cc1)=N[C@@H](CC(C)(C)O)c1nnc(C)n1-2 [Compound I-280]
GI50 (VCaP cells; Homo sapiens, VCaP, 72 h): < 0.5 µM
GI50 (T47D cells; Homo sapiens, T47D, 72 h): > 3 µM
GI50 ([1]; 72 h): > 3 µM
GI50 ([2]; 72 h): < 0.5 µM

Cc1sc2c(c1C)C(c1ccc(C3CC(N4CCN(c5ccc(C(=O)N[C@H]6C(C)(C)[C@H](Oc7ccc(C#N)c(Cl)c7)C6(C)C)cn5)CC4)C3)cc1)=N[C@@H](C)c1nnc(C)n1-2 (stereo partly shown) [Compound I-572]
GI50 (VCaP cells; Homo sapiens, VCaP, 72 h): < 0.5 µM
GI50 (T47D cells; Homo sapiens, T47D, 72 h): < 0.5 µM
GI50 ([1]; 72 h): < 0.5 µM
GI50 ([2]; 72 h): < 0.5 µM

Cc1sc2c(c1C)C(c1ccc(C3CC(CC4CN(c5ncc(C(=O)N[C@H]6C(C)(C)[C@H](Oc7ccc(C#N)c(Cl)c7)C6(C)C)cn5)C4)C3)cc1)=NC(Cc1ncco1)c1nnc(C)n1-2 (stereo partly shown) [Compound I-476]
GI50 (VCaP cells; Homo sapiens, VCaP, 72 h): < 0.5 µM
GI50 (T47D cells; Homo sapiens, T47D, 72 h): < 0.5 µM
GI50 ([1]; 72 h): < 0.5 µM
GI50 ([2]; 72 h): < 0.5 µM

Cc1sc2c(c1C)C(c1ccc(CN3CC4(CCN(c5ncc(C(=O)N[C@H]6C(C)(C)[C@H](Oc7ccc(C#N)c(Cl)c7)C6(C)C)cn5)CC4)C3)cc1)=N[C@@H](Cc1ncco1)c1nnc(C)n1-2 [Compound I-141]
GI50 (VCaP cells; Homo sapiens, VCaP, 72 h): < 0.5 µM
GI50 (T47D cells; Homo sapiens, T47D, 72 h): > 3 µM
GI50 ([1]; 72 h): 0.5 to 1.5 µM
GI50 ([2]; 72 h): < 0.5 µM

Cc1sc2c(c1C)C(c1ccc(C(=O)N3CCC(N(C)c4ncc(C(=O)N[C@H]5C(C)(C)[C@H](Oc6ccc(C#N)c(Cl)c6)C5(C)C)cn4)CC3)cc1)=N[C@@H](Cc1ncco1)c1nnc(C)n1-2 [Compound I-293]
GI50 (VCaP cells; Homo sapiens, VCaP, 72 h): > 3 µM
GI50 (T47D cells; Homo sapiens, T47D, 72 h): > 3 µM
GI50 ([1]; 72 h): > 3 µM
GI50 ([2]; 72 h): < 0.5 µM

Cc1sc2c(c1C)C(c1ccc(OC3CC4(C3)CC3(CCN(c5ncc(C(=O)N[C@H]6C(C)(C)[C@H](Oc7ccc(C#N)c(Cl)c7)C6(C)C)cn5)CC3)C4)cc1)=N[C@@H](C)c1nnc(C)n1-2 [Compound I-411]
GI50 (VCaP cells; Homo sapiens, VCaP, 72 h): < 0.5 µM
GI50 (T47D cells; Homo sapiens, T47D, 72 h): 0.5 to 1.5 µM
GI50 ([1]; 72 h): > 3 µM
GI50 ([2]; 72 h): < 0.5 µM

Cc1sc2c(c1C)C(c1ccc(O[C@@H]3CCC4(CCN(c5ncc(C(=O)N[C@H]6C(C)(C)[C@H](Oc7ccc(C#N)c(Cl)c7)C6(C)C)cn5)C4)C3)cc1)=N[C@@H](Cc1ncco1)c1nnc(C)n1-2 (stereo partly shown) [Compound I-177]
GI50 (VCaP cells; Homo sapiens, VCaP, 72 h): < 0.5 µM
GI50 (T47D cells; Homo sapiens, T47D, 72 h): < 0.5 µM
GI50 ([1]; 72 h): < 0.5 µM
GI50 ([2]; 72 h): < 0.5 µM
